In publication PMC5562236, “Properties of Two Novel Esterases Identified from Culture Supernatant of Penicillium purpurogenum Grown on Sugar Beet Pulp” (Insights in enzyme research, 2016):

System: T1, FAET
T1 construct: full-length cDNA (introns removed) with own signal peptide in pPICZB, stop codon kept, no tag seen; secreted by Pichia pastoris GS115, culture supernatant, no purification described
Assay: pNP release at […] nm, microplate, recombinant P. pastoris culture supernatant
Assay type: biochemical, Talaromyces purpureogenus
Details: 100 mM sodium phosphate pH 5.8, 28 °C (general pNP assay)

CC(=O)Oc1ccc([N+](=O)[O-])cc1 [pNP-acetate]
Km: 2300 µM

COc1cc(/C=C/C(=O)Oc2ccc([N+](=O)[O-])cc2)ccc1O [pNP-ferulate]
Km: 1400 µM
